Values quoted from earlier work as cited in US7648982B2 (priority 2003, dated 2010).

Experiments:
[1] = in vivo, iv
[2] = in vivo

For `CN1CC[C@]23c4c5ccc(O)c4O[C@H]2[C@@H](O)C=C[C@H]3[C@H]1C5` [morphine], the “delay of peak drug effect from the time of injection” value [1] is listed as 10 to 15 min, the K10 [2] is listed as “Morphine_K10 = 0.07051” and the K12 [2] is listed as “Morphine_K12 = 0.1273”. For the same compound, the K13 [2] was “Morphine_K13 = 0.01826”, the K21 [2] was “Morphine_K21 = 0.02596” and the K31 [2] was “Morphine_K31 = 0.001633”. For the same compound, the Ke0 [2] was “Morphine_Ke0 = 0.005” and the V1 [2] was “Morphine_V1 = 17.8”.
